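Cultured in 96-well plates, cells were exposed to test compound for 48 hours across five concentrations. GI50 is the concentration that inhibits growth by half. TGI denotes the concentration required for complete inhibition of growth.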
Experiments:
Test in all cases: NCI tumour cell line growth inhibition, 48 h
[1] = test system: DMS 273 small cell lung
[2] = test system: HOP-18 NSCLC
[3] = test system: KM20L2 colon
[4] = test system: M19-MEL melanoma
[5] = test system: XF 498 CNS
[6] = test system: SNB-78 CNS
[7] = test system: P388 leukemia
[8] = test system: P388/ADR leukemia
[9] = test system: RXF-631 renal
[10] = test system: SN12K1 renal

Row | Structure (SMILES) | TGI [1] | TGI [2] | TGI [3] | TGI [4] | TGI [5] | TGI [6] | GI50 [5] | TGI [7] | TGI [8] | TGI [9] | TGI [10]
1 | NNc1nnc(-c2ccccc2)nc1Cc1ccccc1 | > 100 µM | 7.25 µM | > 100 µM | > 100 µM | 79.3 µM | – | – | – | – | – | –
2 | COc1ccccc1NC(=O)CSC(N)=O | > 100 µM | > 100 µM | > 100 µM | > 100 µM | 83.6 µM | > 100 µM | – | – | – | – | –
3 | CC(C)NCCNC(=O)c1ccccc1Nc1c(Cl)cccc1Cl | 26.6 µM | – | 5.78 µM | 20.8 µM | 11.4 µM | 31.5 µM | – | – | – | – | –
4 | Cc1cccc(=O)c([O-])c1.Cc1cccc(=O)c([O-])c1.Cc1cccc(=O)c([O-])c1.Cc1cccc(=O)c([O-])c1.[Th+4] | 33 µM | > 100 µM | > 100 µM | 61.8 µM | 64.9 µM | > 100 µM | 23.3 µM | – | – | – | –
5 | O=P1(N(CCCl)CCCl)NCCCO1 (stereo not given) | > 250 µM | 150 µM | > 250 µM | > 250 µM | 180 µM | > 216 µM | – | > 250 µM | > 229 µM | > 250 µM | > 250 µM
6 | Cc1ccc(Cl)c2c(=O)cc(-c3ccccc3)[nH]c12 | > 100 µM | > 100 µM | – | > 100 µM | – | – | – | – | – | – | –
7 | O=C(NCCNCCO)N/N=C/c1ccccc1 | > 100 µM | > 100 µM | – | – | > 100 µM | > 100 µM | – | – | – | – | –
